Experimental data as given in article PMC3115942 (PLoS ONE, 2011).
Entries after “also recorded” stand apart in the source; their conditions may differ.

What was measured:
AMPK(r) = assay: Millipore kinaseprofiler diversity array; assay type: biochemical, rat; details: 10 µM MS-0022
Method: Table 4 Kinase activity in presence of 10 µM MS-0022 in a kinaseprofiler diversity array. | column: Activity %

[1] = test system: ciliary accumulation of Smo in Ptch−/− MEF; assay: Immunostaining of Smo in primary cilia of Ptch−/− MEF; assay type: cell-based, mouse; details: 5 µM, 24 hours
Method: PTCH−/− MEF were seeded on pre-coated glass slides (1 hour coating with 0.1% Gelatin (G1393) and 0.003% Collagen (C8919) (Sigma-Aldrich) in PBS). 80% confluent cells were switched from 10% to 0.5% FBS in medium and cells were treated with DMSO or 5 µM MS-0022 for 24 hours in (n = 3) before subsequent immunofluorescent staining: Slides were fixed with 4% paraformaldehyde (Sigma-Aldrich), permeabilized for 10 min in 0.1% v/v Triton X-100 (Sigma-Aldrich) in PBS (PBT), and blocked with 10% w/v BSA (Saveen Werner) in PBT for 1 hour. Primary antibodies, mouse anti-acetylated tubulin (a-Tub) (Sigma-Aldrich (T7451), 1∶1000) goat anti-Smo (Santa Cruz Biotechnology (sc-6367), 1∶1000), and goat anti-GLI-1 (RnD systems (AF3455), 1∶500) were diluted in 0.5% w/v BSA in PBT and left on the slides over night at 4°C. Secondary antibodies donkey anti-goat IgG-Alexa 594 and donkey anti-mouse IgG-Alexa 488 (Invitrogen, both at 1∶500) were added in 0.5% w/v BSA in PBT for 1 hour. The slides were counterstained with DAPI (Roche, 1 mg/ml) in PBS. 3 random regions were imaged pr slide using a confocal LSM510 microscope (Carl Zeiss MicroImaging). The ratio of […] positive cilia was quantified manually or processed and analyzed using ImageJ to quantify the intensity of Smo and aTub for each cilium in the images (http://rsb.info.nih.goc/ij/). […]

[2] = test system: TNF-α induced NfkB signaling in NIH3T3 cells; assay: NFkB luciferase reporter assay in NIH3T3; assay type: cell-based; details: NIH3T3, 10 µM and 20 µM, 24 hours
Method: Vectors were obtained from the following: GliBS-Luc reporter (gift from H. Sasaki), pBluescript (pBS) (Stratagene), FL-HA-GLI1 (Gli1) and Gli2-GFP (Gli2) (gifts from R. Toftgård), Super8XTOPFlash, and NFkB-luc (Panomics). 10 ng renilla luciferase (pRL-TK) (Promega) was used as a transfection control. HEK293 and NIH3T3 cells were seeded at 80,000 per well in 48-well plates on day 1, and were co-transfected on day 2 using a total of 0.4 µg plasmid per well mixed at 1∶3 in FUGENE6 according to manufacturer^'s instructions. On day 3, control medium and activating medium (50% L1 conditioned medium, 50% Shh conditioned medium or medium containing 10 ng/mL recombinant rcrTNF-α (R&D Systems)) +/− 10–20 µM MS-0022 were added, using DMSO as a control (the NFkB pathway inhibitor Bay11-7082 was used as a control in the NFkB assay). Samples were analyzed on day 4 or 5 using the Dual Luciferase assay kit according to manufacturer^'s instructions. Graphs display relative or fold reporter activity, and are calculated from a mean ratio of firefly reporter luminescence/pRL-TK luminescence with standard deviation error bars (n = 3). The experiments have been repeated with similar results.

[3] = test system: GLI1 mRNA in SUIT-2 cells; assay: Real time PCR of GLI1 mRNA in SUIT-2; assay type: cell-based, human; details: 48 hrs
Method: Cells were lysed for RNA extraction after 48 or 72 hours of treatment. Total RNA from cultured cells or tumor tissue was isolated using the GeneElute miniprep kit (Sigma-Aldritch) following the manufacturer^'s instructions. cDNA was synthesized from the isolated mRNA using the Retroscript kit (Ambion), and real-time PCR was carried out using the SYBR Green PCR master mix (Stratagene) according to the manufacturer^'s instructions with an Mx3000P cycler (Stratagene). The relative concentrations of cDNA present in each sample were calculated by the MxPro software (Stratagene), normalized for GAPDH (mRNA from cells) or GUS (mRNA from tumors). For real time PCR primer sequences see Table 6. For the tumor tissue real time PCR, previously described human and mouse specific primers against GUSB, PTCH1 and GLI1were used.

Dose tolerance in mice = assay type: in vivo
Method: MS-0022 tolerance was tested by daily injections of 200 mg/kg MS-0022 for 5 days in 7–8 week old male C57BL mice. Animal were observed daily for outward signs of toxicity (weight loss, fur ruffling, hunched posture).

With Cc1cccn2cc(-c3ccc(NC(=O)c4ccccc4Br)cc3)nc12 [MS-0022, 2-bromo-N-(4-(8-methylimidazo[1,2-a]pyridin-2-yl)phenyl)benzamide] as the compound, how does the Activity % (AMPK(r)) read?
Its Activity % is 98%.

And the “ciliary accumulation of Smo” value [1]?
Its value is “effectively blocked ciliary accumulation of Smo”.

And the “TNF-α induced NfkB signaling” value [2]?
The value was “nor did it block; also recorded: slight increase of NFkB signaling”.

What about the “GLI1 mRNA levels, SUIT-2” value [3] of the same compound?
The value was “reduced GLI1 mRNA levels”.

What about the “outward signs of toxicity or other side effects” value (Dose tolerance in mice; 200 mg/kg daily for 5 days) of the same compound?
The value was “did not show any outward signs of toxicity”.

What about the “alterations in body weight” value (Dose tolerance in mice; daily IP injections of 200 mg/kg for 5 days) of the same compound?
The value was “No statistically significant alterations”.

And the MTD at 5 days (Dose tolerance in mice; male, C57BL, mouse, in vivo, intraperitoneal, 200 mg/kg, mice)?
Its MTD at 5 days is > 200 mg/kg.
